Results reported in ChEMBL document CHEMBL1212923, “Synthesis and in vivo evaluation of phenethylpiperazine amides: selective 5-hydroxytryptamine(2A) receptor antagonists for the treatment of insomnia” (J Med Chem, 2010).
Active and inactive are the calls of the source. No cut-off for these calls is given here.

Assays:
[1] = biological target: T1, 5-hydroxytryptamine receptor 2C (Homo sapiens, UniProt P28335); format: cell-based, HEK293
T1 sequence (P28335 whole entry): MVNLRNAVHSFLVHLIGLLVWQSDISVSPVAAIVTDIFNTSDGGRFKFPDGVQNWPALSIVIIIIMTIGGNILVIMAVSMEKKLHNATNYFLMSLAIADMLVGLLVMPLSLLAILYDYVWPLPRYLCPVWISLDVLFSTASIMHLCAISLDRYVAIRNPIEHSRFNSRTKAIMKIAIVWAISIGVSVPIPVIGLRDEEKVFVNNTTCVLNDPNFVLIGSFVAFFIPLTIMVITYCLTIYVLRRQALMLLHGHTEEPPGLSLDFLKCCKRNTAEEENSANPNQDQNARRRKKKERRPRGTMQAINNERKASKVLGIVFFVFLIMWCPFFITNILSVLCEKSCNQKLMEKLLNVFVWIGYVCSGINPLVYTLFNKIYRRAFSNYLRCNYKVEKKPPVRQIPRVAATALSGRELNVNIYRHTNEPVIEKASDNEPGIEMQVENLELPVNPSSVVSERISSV

[2] = biological target: 5-hydroxytryptamine receptor 2A (Homo sapiens, UniProt P28223); assay: biochemical
Sequence of 5-hydroxytryptamine receptor 2A (P28223 whole entry): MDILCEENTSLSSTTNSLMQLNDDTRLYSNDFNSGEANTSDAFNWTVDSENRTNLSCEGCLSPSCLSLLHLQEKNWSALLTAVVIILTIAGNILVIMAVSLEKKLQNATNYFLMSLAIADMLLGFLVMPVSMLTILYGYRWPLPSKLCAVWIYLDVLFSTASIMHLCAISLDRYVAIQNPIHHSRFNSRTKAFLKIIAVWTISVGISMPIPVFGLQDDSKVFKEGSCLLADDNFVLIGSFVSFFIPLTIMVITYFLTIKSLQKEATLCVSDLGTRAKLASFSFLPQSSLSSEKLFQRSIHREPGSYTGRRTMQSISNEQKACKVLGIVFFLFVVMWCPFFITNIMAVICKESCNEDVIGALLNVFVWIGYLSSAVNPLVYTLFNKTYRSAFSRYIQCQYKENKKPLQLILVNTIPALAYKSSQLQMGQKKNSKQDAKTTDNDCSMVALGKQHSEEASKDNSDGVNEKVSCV
Description: Displacement of [125I]DOI from human recombinant 5HT2A receptor expressed in HEK293 cells after 1 hr by scintillation counting

[3] = Drug level in Sprague-Dawley rat brain at 3 mg/kg, po after 0.75 hrs; format: ADME, organism-based; set-up: dose 3 mg/kg, route oral; settings: read-out: Drug uptake
[4] = Drug level in Sprague-Dawley rat plasma at 3 mg/kg, po after 0.75 hrs; format: ADME, organism-based; set-up: dose 3 mg/kg, route oral; settings: read-out: Drug uptake
[5] = Ratio of drug level in brain to plasma in Sprague-Dawley rat at 3 mg/kg, po after 0.75 hrs; format: ADME, organism-based; set-up: dose 3 mg/kg, route oral
Rattus norvegicus [6] = assay: Inhibition of DOI-induced hypolocomotion in Sprague-Dawley rat at 1 mg/kg, po administered 25 mins before DOI challenge measured after 10 mins; format: functional
hERG (KCNH2) = hERG (KCNH2) (Homo sapiens, UniProt Q12809); assay: Inhibition of human ERG at 3 uM by patch clamp electrophysiology assay
Sequence of hERG (KCNH2) (Q12809 whole entry): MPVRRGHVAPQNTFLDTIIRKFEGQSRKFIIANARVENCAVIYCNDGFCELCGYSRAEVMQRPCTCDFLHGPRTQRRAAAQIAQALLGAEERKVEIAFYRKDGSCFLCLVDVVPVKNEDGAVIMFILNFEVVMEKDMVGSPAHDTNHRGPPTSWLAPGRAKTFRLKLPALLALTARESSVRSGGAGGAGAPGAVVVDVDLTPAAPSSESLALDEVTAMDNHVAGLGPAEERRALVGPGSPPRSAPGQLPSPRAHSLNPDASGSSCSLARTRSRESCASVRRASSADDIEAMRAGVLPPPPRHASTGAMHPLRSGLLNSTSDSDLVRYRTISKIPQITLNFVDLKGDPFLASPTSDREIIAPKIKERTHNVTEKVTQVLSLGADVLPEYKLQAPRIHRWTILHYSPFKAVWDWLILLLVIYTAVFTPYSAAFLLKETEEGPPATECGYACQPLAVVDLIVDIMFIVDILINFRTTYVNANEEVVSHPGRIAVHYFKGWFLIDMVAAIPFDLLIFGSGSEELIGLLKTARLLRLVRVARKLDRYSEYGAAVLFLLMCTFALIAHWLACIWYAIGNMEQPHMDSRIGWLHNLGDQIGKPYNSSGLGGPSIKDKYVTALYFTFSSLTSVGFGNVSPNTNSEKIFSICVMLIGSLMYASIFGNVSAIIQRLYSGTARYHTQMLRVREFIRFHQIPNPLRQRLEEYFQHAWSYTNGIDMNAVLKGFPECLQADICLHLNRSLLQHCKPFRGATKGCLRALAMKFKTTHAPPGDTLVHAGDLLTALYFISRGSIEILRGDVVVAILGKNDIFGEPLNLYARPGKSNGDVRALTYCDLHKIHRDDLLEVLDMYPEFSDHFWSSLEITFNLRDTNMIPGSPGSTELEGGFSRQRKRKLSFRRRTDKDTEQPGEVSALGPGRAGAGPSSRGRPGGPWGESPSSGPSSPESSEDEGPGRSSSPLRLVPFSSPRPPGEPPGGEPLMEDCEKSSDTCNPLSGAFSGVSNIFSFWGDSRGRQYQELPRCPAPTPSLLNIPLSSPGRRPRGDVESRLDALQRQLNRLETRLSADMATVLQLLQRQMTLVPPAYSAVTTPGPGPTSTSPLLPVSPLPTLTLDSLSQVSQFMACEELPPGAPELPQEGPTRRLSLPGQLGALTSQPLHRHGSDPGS

Rattus norvegicus [7] = assay: Inhibition of DOI-induced hypolocomotion in Sprague-Dawley rat at 3 mg/kg, po administered 25 mins before DOI challenge measured after 10 mins; format: functional
[8] = Half life in rat liver microsomes; format: ADME, Microsome
[9] = Cmax in Sprague-Dawley rat at 10 mg/kg, po; format: ADME, organism-based; set-up: dose 10 mg/kg, route oral; settings: in vivo
[10] = Half life in Sprague-Dawley rat at 10 mg/kg, po; format: ADME, organism-based; set-up: dose 10 mg/kg, route oral; settings: in vivo
[11] = Drug level in Sprague-Dawley rat brain at 0.3 mg/kg, po after 0.75 hrs; format: ADME, organism-based; set-up: dose 0.3 mg/kg, route oral; settings: read-out: Drug uptake
Rattus norvegicus [12] = assay: Volume of distribution at steady state in Sprague-Dawley rat at 10 mg/kg, po; format: ADME, organism-based; set-up: dose 10 mg/kg, route oral; settings: in vivo
[13] = Drug level in Sprague-Dawley rat plasma at 0.3 mg/kg, po after 0.75 hrs; format: ADME, organism-based; set-up: dose 0.3 mg/kg, route oral; settings: read-out: Drug uptake
Rattus norvegicus [14] = assay: Inhibition of DOI-induced hypolocomotion in po dosed Sprague-Dawley rat administered 25 mins before DOI challenge measured after 10 mins; format: functional, organism-based
Cytochrome P450 2C19 = Cytochrome P450 2C19 (Homo sapiens, UniProt P33261); assay: Inhibition of CYP2C19 in human liver microsomes; format: ADME, Microsome
Sequence of Cytochrome P450 2C19 (P33261 whole entry): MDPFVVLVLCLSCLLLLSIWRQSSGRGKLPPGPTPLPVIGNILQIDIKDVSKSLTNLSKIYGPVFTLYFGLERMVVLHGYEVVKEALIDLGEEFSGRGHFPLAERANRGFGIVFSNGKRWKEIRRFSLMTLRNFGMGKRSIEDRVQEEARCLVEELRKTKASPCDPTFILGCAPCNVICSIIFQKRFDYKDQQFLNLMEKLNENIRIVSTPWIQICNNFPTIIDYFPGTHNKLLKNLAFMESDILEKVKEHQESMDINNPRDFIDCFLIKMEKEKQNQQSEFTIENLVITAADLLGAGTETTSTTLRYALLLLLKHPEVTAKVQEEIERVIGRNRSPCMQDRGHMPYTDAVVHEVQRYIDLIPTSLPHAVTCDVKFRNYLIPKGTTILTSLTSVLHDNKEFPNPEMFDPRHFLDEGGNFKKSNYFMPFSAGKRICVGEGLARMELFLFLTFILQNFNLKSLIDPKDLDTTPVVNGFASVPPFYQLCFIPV

[15] = AUClast in Sprague-Dawley rat at 10 mg/kg, po; format: ADME, organism-based; set-up: time 0 - last, dose 10 mg/kg, route oral; settings: plasma
Cytochrome P450 3A4 = Cytochrome P450 3A4 (Homo sapiens, UniProt P08684); assay: Inhibition of CYP3A4 in human liver microsomes; format: ADME, Microsome
Sequence of Cytochrome P450 3A4 (P08684 whole entry): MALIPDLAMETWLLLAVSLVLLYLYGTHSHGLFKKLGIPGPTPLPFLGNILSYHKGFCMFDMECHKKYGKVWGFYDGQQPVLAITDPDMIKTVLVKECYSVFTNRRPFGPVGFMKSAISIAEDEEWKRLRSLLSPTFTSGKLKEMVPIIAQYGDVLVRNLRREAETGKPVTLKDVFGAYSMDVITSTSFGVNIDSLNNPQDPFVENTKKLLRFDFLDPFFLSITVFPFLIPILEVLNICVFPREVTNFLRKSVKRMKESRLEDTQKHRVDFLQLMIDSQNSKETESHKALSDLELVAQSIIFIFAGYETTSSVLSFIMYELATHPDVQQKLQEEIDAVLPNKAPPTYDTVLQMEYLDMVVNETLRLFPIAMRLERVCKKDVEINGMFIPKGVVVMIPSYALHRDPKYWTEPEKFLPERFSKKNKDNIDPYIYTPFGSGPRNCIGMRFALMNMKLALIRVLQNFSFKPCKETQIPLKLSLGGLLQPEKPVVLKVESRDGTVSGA

Cytochrome P450 1A2 = biological target: T2, Cytochrome P450 1A2 (Homo sapiens, UniProt P05177); assay: Inhibition of CYP1A2 in human liver microsomes; format: ADME, Microsome
T2 sequence (P05177 whole entry): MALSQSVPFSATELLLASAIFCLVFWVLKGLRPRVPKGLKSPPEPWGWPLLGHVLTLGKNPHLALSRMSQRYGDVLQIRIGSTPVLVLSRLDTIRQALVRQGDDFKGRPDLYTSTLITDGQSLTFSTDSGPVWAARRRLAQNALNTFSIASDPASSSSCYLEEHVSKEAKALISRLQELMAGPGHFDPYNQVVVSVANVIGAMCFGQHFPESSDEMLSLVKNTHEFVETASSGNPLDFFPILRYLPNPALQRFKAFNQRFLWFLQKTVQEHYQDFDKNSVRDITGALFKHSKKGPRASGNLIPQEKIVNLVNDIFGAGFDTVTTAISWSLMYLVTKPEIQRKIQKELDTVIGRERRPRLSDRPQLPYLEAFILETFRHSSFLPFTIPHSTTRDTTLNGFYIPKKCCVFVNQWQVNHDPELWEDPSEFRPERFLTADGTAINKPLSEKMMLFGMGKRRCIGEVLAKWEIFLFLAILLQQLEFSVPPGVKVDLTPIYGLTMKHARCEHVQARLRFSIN

Rattus norvegicus [16] = assay: Effect on behavioral activity in po dosed Sprague-Dawley rat assessed as increase in sleep consolidation after 5 hrs; format: functional, organism-based
Cytochrome P450 2C9 = Cytochrome P450 2C9 (Homo sapiens, UniProt P11712); assay: Inhibition of CYP2C9 in human liver microsomes; format: ADME, Microsome
Sequence of Cytochrome P450 2C9 (P11712 whole entry): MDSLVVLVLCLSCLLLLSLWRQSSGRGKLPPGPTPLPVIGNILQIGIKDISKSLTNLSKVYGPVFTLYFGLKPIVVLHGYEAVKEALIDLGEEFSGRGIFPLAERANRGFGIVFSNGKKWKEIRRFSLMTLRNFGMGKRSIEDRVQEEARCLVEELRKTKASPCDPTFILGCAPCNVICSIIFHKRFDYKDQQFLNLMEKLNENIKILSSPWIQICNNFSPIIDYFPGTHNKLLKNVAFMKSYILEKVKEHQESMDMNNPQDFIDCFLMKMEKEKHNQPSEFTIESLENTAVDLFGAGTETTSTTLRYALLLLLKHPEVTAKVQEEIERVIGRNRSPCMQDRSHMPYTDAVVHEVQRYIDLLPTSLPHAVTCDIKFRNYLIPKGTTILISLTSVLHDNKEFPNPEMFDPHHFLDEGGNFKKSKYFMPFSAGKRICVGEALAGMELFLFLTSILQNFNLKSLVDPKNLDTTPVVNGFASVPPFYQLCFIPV

[17] = Total clearance in Sprague-Dawley rat at 2 mg/kg, iv; format: ADME, organism-based; set-up: dose 2 mg/kg, route intravenous; settings: in vivo
Rattus norvegicus [18] = assay: Effect on behavioral activity in Sprague-Dawley rat assessed as increase in deep sleep at 0.1 mg/kg, po after 1 hr; format: functional, organism-based; set-up: dose 0.1 mg/kg
[19] = Oral bioavailability in Sprague-Dawley rat at 10 mg/kg relative to 2 mg/kg, iv dose; format: ADME, organism-based; settings: in vivo
Cytochrome P450 2D6 = Cytochrome P450 2D6 (Homo sapiens, UniProt P10635); assay: Inhibition of CYP2D6 in human liver microsomes; format: ADME, Microsome
Sequence of Cytochrome P450 2D6 (P10635 whole entry): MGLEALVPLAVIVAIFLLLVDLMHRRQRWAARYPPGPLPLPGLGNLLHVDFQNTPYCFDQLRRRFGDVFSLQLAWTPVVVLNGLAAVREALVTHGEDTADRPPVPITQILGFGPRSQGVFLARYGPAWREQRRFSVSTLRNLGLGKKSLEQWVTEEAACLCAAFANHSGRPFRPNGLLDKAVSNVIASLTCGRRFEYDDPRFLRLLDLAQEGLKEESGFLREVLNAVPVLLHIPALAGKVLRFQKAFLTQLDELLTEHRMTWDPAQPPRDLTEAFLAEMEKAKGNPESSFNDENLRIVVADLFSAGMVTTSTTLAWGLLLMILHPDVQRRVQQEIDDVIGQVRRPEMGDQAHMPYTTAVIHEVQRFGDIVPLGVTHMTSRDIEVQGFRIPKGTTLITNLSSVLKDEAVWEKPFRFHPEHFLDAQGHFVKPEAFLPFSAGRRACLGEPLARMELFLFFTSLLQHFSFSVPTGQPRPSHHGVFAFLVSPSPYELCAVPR

Rattus norvegicus [20] = assay: Effect on behavioral activity in Sprague-Dawley rat assessed as increase in deep sleep at 0.1 mg/kg, po after 3 to 4 hrs; format: functional, organism-based; set-up: dose 0.1 mg/kg
Rattus norvegicus [21] = assay: Hepatic blood flow in Sprague-Dawley rat at 10 mg/kg, po; format: ADME, organism-based, Liver; set-up: dose 10 mg/kg, route oral; settings: in vivo

Row | SMILES | Ki [1] [nM] | Ki [2] [nM] | other results
1 | Cn1cc(Br)c(C(=O)N2CCN(CCc3ccccc3F)CC2)n1 | > 10000 | 18 | –
2 | Cc1cc(C(=O)N2CCN(CC(=O)c3ccc(F)cc3)CC2)nn1C | > 10000 | 8.5 | –
3 | COc1ccc(NC(=O)N2CCN(CCc3ccc(F)cc3)CC2)cc1-c1c(Cl)cnn1C | > 10000 | 155 | –
4 | Cn1cc(Br)c(C(=O)N2CCN(CCc3ccccc3)CC2)n1 | > 10000 | 68 | –
5 | COc1ccc(CCN2CCN(C(=O)c3nn(C)cc3Br)CC2)cc1 | > 10000 | 408 | –
6 | COc1ccc(NC(=O)Nc2ccc(F)cc2F)cc1-c1c(Br)cnn1C [NELOTANSERIN] | 110 | 0.51 | concentration at 0.75 h [3]: 320 ng/mL; concentration at 0.75 h [4]: 488 ng/mL; Kp at 0.75 h [5]: 0.65
7 | Cc1cc(C(=O)N2CCN(CC(=O)c3ccc(F)cc3)CC2)[nH]n1 | > 10000 | 36 | –
8 | Cn1cc(Br)c(C(=O)N2CCN(CCc3cccc(F)c3)CC2)n1 | > 10000 | 542 | –
9 | Cn1cc(C(F)(F)F)c(C(=O)N2CCN(CC(=O)c3ccc(F)cc3)CC2)n1 | 3870 | 28 | –
10 | Cn1cc(Br)c(C(=O)N2CCN(CC(O)c3ccc(F)cc3)CC2)n1 (centres undefined) | > 10000 | 368 | –
11 | O=C(CN1CCN(C(=O)c2n[nH]cc2Cl)CC1)c1ccc(F)cc1 | 2750 | 18.5 | –
12 | Cc1c(Br)c(C(=O)N2CCN(CC(=O)c3ccc(F)cc3)CC2)nn1C | 2930 | 4.6 | inhibition in vivo at 1 mg/kg (Rattus norvegicus [6]): 22%; inhibition at 3 µM (hERG (KCNH2)): 15%; inhibition in vivo at 3 mg/kg (Rattus norvegicus [7]): 65%; half-life [8]: 29 min
13 | N#Cc1c[nH]c2c(C(=O)N3CCN(CCc4ccc(F)cc4)CC3)cccc12 [PRUVANSERIN] | 645 | 0.48 | –
14 | Cn1cc(Br)c(C(=O)N2CCN(CCc3ccc(F)cc3F)CC2)n1 | 2820 | 1.1 | inhibition at 3 µM (hERG (KCNH2)): 80%; half-life [8]: 9 min
15 | CO/N=C(/CN1CCN(C(=O)c2nn(C)cc2Br)CC1)c1ccc(F)cc1 | 8600 | 2470 | –
16 | Cn1cc(Br)c(C(=O)N2CCN(CC(=O)c3ccc(OC(F)(F)F)cc3)CC2)n1 | 5610 | 6000 | –

Row | SMILES | Ki [1] [nM] | Ki [2] [nM] | other results
17 | Cn1cc(Br)c(C(=O)N2CCN(CCc3ccc(Cl)cc3)CC2)n1 | > 10000 | 34 | –
18 | Cn1cc(Br)c(C(=O)N2CCN(CC(=O)c3ccccc3F)CC2)n1 | 9800 | 270 | –
19 | Cn1cc(Br)c(C(=O)N2CCN(CC(=O)c3ccc(F)cc3)CC2)n1 | 2120 | – | Cmax [9]: 1260 ng/mL; half-life [10]: 126 min; concentration at 0.75 h [11]: 20.8 ng/mL; Vdss (Rattus norvegicus [12]): 1.5 L/kg; concentration at 0.75 h [13]: 17.8 ng/mL; inhibition in vivo at 1 mg/kg (Rattus norvegicus [6]): 75%; ED50 (Rattus norvegicus [14]; Rattus norvegicus, Sprague-Dawley, po): 0.3 mg/kg; inhibition (INH) (Cytochrome P450 2C19): Not Active; inhibition in vivo at 3 mg/kg (Rattus norvegicus [7]): 65%; half-life [8]: > 60 min; AUC(0-t) [15]: 1450 ng·h/mL; inhibition (INH) (Cytochrome P450 3A4): Not Active; inhibition (INH) (Cytochrome P450 1A2): Not Active; Activity (Rattus norvegicus [16]): Dose-dependent effect; inhibition (INH) (Cytochrome P450 2C9): Not Active; clearance [17]: 66.7 mL/min/kg; Activity (Rattus norvegicus [18]): Active; bioavailability [19]: 59%; inhibition (INH) (Cytochrome P450 2D6): Not Active; Activity (Rattus norvegicus [20]): Active
20 | Cn1cc(I)c(C(=O)N2CCN(CC(=O)c3ccc(F)cc3)CC2)n1 | 3870 | 4.5 | –
21 | Cn1ccc(C(=O)N2CCN(CC(=O)c3ccc(F)cc3)CC2)n1 | 1420 | 37 | –
22 | Cc1nc2n(c(=O)c1CCN1CCN(C(=O)c3nn(C)cc3Br)CC1)CCCC2 | > 10000 | > 10000 | –
23 | O=C(Nc1[nH]ncc1Br)N1CCN(CCc2ccc(F)cc2)CC1 | > 10000 | 88 | –
24 | Cn1cc(Br)c(C(=O)N2CCN(CC(=O)c3ccc(F)cc3F)CC2)n1 | > 10000 | 70 | –
25 | Cc1[nH]nc(C(=O)N2CCN(CC(=O)c3ccc(F)cc3)CC2)c1Br | 3570 | 4.6 | –
26 | Cn1cc(Br)c(C(=O)N2CCN(CCc3ccc(F)cc3)CC2)n1 | 4150 | 3.6 | Cmax [9]: 48 ng/mL; half-life [10]: 84 min; concentration at 0.75 h [3]: 16.8 ng/mL; concentration at 0.75 h [4]: 8.3 ng/mL; Vdss (Rattus norvegicus [12]): 8.1 L/kg; EC50 (Rattus norvegicus [14]): 3 mg/kg; inhibition at 3 µM (hERG (KCNH2)): 79%; half-life [8]: 14 min; AUC(0-t) [15]: 91 ng·h/mL; Kp at 0.75 h [5]: 2.02; clearance [17]: 155 mL/min/kg; bioavailability [19]: 9%; LBF (Rattus norvegicus [21]): 220%
27 | CCn1cc(Cl)c(C(=O)N2CCN(CC(=O)c3ccc(F)cc3)CC2)n1 | > 10000 | 2.6 | inhibition in vivo at 3 mg/kg (Rattus norvegicus [7]): 54%
28 | Cc1cc(C(=O)N2CCN(CC(=O)c3ccc(F)cc3)CC2)nn1-c1ccccc1 | 3710 | 11 | –
29 | Cn1cc(Br)c(C(=O)N2CCN(CC(=O)c3ccc(C(F)(F)F)cc3)CC2)n1 | > 10000 | 865 | –
30 | Cn1cc(Br)c(C(=O)N2CCN(CCN3C(=O)c4ccccc4C3=O)CC2)n1 | > 10000 | > 10000 | –
31 | Cc1cc(C(=O)N2CCN(CC(=O)c3ccc(F)cc3)CC2)nn1C(C)(C)C | > 10000 | 9.3 | –
